Measurements: ChEMBL document CHEMBL1143467, “Synthesis of potent and selective serotonin 5-HT1B receptor ligands” (Bioorg Med Chem Lett, 2005)

What was measured:
[1] = molecular target: Histamine H1 receptor (Homo sapiens, UniProt P35367); experiment: Affinity towards cloned Histamine H1 receptor
[2] = Affinity towards cloned Nicotinic acetylcholine receptor
[3] = molecular target: D(1A) dopamine receptor (Homo sapiens, UniProt P21728); experiment: Affinity towards cloned Dopamine receptor D1
[4] = molecular target: D(3) dopamine receptor (Homo sapiens, UniProt P35462); experiment: Affinity towards cloned Dopamine receptor D3
[5] = molecular target: Mu-type opioid receptor (Homo sapiens, UniProt P35372); experiment: Affinity towards cloned Opioid receptor mu 1
[6] = molecular target: Muscarinic acetylcholine receptor M3 (Homo sapiens, UniProt P20309); experiment: Affinity towards cloned Muscarinic acetylcholine receptor M3
[7] = molecular target: Delta-type opioid receptor (Homo sapiens, UniProt P41143); experiment: Affinity towards cloned Opioid receptor delta 1
[8] = molecular target: T1, D(4) dopamine receptor (Homo sapiens, UniProt P21917); experiment: Affinity towards cloned Dopamine receptor D4
T1 sequence (P21917 whole entry): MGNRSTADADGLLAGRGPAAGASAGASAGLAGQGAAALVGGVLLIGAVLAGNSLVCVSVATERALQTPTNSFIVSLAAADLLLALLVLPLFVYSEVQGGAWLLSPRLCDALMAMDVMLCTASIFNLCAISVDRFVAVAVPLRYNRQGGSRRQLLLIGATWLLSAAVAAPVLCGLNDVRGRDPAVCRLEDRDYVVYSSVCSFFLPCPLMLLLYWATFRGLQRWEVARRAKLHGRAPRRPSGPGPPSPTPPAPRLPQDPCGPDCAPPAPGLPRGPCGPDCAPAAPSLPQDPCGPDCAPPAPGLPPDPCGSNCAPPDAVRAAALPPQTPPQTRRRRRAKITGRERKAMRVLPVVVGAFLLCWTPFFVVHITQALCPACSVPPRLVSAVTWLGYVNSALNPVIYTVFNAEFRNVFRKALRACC

[9] = molecular target: 5-hydroxytryptamine receptor 6 (Homo sapiens, UniProt P50406); experiment: In vitro binding affinity towards cloned human 5-HT6 receptor using [3H]5-carboximidotryptamine as radioligand
[10] = molecular target: T2, 5-hydroxytryptamine receptor 2C (Homo sapiens, UniProt P28335); experiment: In vitro binding affinity towards cloned human 5-HT2C receptor using [3H]5-carboximidotryptamine as radioligand
T2 sequence (P28335 whole entry): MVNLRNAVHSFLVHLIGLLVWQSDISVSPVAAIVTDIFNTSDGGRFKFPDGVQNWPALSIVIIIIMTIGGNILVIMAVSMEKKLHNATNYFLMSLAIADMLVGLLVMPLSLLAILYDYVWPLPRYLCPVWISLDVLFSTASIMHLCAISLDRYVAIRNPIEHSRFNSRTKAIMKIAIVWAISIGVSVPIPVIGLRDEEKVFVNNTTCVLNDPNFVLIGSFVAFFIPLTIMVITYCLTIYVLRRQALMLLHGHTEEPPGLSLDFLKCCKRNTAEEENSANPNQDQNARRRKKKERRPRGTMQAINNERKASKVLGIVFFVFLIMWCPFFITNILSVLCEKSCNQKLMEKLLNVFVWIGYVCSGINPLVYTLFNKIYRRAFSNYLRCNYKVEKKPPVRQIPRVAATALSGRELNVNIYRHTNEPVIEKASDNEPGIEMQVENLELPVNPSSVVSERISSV

[11] = molecular target: D(2) dopamine receptor (Homo sapiens, UniProt P14416); experiment: Affinity towards cloned Dopamine receptor D2
[12] = molecular target: T3, Muscarinic acetylcholine receptor M2 (Homo sapiens, UniProt P08172); experiment: Affinity towards cloned Muscarinic acetylcholine receptor M2
T3 sequence (P08172 whole entry): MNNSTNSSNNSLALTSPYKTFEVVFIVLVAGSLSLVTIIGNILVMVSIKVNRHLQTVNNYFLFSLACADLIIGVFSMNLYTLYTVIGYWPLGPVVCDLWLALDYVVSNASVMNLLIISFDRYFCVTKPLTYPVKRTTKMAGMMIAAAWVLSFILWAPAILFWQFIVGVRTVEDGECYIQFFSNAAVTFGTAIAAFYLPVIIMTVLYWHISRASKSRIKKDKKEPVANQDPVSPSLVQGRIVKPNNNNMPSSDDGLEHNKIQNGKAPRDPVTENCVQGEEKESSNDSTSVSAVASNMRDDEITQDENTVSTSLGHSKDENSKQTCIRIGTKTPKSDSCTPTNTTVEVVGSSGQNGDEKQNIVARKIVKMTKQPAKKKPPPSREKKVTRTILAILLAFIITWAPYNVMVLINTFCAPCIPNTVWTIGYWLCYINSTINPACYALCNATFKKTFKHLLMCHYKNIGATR

[13] = molecular target: T4, Muscarinic acetylcholine receptor M1 (Homo sapiens, UniProt P11229); experiment: Affinity towards cloned Muscarinic acetylcholine receptor M1
T4 sequence (P11229 whole entry): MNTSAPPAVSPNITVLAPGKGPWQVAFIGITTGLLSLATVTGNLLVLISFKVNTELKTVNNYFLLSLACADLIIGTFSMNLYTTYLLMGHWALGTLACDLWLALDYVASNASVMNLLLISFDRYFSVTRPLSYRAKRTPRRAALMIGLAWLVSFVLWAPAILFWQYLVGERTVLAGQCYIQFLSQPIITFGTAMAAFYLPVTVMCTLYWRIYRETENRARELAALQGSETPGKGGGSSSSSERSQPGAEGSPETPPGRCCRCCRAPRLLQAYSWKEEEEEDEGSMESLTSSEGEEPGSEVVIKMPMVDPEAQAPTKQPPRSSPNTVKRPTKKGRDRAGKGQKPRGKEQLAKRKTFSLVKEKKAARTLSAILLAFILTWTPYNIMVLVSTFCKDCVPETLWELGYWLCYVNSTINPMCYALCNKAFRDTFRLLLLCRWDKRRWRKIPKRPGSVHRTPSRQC

[14] = molecular target: 5-hydroxytryptamine receptor 1B (Homo sapiens, UniProt P28222); experiment: In vitro binding affinity towards cloned human 5-HT1B receptor using [3H]5-carboximidotryptamine as radioligand
[15] = molecular target: T5, 5-hydroxytryptamine receptor 1A (Homo sapiens, UniProt P08908); experiment: In vitro binding affinity towards cloned human 5-HT1A receptor using [3H]5-carboximidotryptamine as radioligand
T5 sequence (P08908 whole entry): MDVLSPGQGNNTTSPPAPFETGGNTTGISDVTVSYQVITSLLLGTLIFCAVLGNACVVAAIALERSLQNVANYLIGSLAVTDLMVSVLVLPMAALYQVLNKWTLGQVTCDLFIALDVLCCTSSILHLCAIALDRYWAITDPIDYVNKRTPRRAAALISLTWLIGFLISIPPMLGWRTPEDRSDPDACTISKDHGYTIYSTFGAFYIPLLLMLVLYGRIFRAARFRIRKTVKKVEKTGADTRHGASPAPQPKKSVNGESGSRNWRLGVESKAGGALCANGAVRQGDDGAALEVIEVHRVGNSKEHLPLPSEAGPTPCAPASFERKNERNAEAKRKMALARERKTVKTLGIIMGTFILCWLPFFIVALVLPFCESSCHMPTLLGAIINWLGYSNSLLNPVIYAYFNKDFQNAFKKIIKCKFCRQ

[16] = molecular target: Kappa-type opioid receptor (Homo sapiens, UniProt P41145); experiment: Affinity towards cloned Opioid receptor kappa 1
[17] = molecular target: 5-hydroxytryptamine receptor 7 (Homo sapiens, UniProt P34969); experiment: In vitro binding affinity towards cloned human 5-HT7 receptor using [3H]5-carboximidotryptamine as radioligand
Chain of 5-hydroxytryptamine receptor 7 (P34969 whole entry): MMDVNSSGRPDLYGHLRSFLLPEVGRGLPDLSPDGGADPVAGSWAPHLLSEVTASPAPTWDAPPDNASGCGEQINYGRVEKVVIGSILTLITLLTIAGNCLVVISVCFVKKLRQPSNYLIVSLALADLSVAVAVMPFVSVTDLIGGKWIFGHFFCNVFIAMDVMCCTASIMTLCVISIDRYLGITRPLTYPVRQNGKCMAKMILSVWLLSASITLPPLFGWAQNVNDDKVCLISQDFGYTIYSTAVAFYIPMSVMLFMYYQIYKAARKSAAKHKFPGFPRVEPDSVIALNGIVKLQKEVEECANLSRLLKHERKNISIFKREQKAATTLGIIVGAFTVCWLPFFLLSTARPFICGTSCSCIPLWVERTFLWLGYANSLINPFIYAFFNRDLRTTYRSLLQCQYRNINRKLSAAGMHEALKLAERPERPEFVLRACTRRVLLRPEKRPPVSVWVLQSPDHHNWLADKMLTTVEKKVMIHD

Chain of Mu-type opioid receptor (P35372 whole entry): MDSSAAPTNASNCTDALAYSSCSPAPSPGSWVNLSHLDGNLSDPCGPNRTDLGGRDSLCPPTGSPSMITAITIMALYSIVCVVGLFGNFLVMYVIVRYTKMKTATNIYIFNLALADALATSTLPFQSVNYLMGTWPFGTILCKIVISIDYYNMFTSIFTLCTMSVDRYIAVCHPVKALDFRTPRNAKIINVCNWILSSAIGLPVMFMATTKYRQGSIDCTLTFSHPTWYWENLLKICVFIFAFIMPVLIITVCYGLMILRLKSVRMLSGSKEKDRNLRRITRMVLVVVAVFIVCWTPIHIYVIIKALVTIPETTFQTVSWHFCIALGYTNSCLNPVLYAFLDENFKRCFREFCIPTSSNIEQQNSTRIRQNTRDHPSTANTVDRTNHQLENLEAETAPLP
Chain of 5-hydroxytryptamine receptor 6 (P50406 whole entry): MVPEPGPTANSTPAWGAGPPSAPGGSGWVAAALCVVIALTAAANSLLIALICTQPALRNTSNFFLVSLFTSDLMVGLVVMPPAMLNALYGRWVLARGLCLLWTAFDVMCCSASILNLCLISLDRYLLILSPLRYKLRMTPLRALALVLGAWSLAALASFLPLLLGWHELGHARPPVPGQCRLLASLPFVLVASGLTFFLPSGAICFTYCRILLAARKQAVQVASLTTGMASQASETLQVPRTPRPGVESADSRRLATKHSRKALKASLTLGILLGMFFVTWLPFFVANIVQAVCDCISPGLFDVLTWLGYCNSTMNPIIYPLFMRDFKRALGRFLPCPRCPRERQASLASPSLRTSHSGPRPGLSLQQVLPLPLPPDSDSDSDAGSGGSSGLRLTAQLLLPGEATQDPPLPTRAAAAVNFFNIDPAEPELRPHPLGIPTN
Chain of Delta-type opioid receptor (P41143 whole entry): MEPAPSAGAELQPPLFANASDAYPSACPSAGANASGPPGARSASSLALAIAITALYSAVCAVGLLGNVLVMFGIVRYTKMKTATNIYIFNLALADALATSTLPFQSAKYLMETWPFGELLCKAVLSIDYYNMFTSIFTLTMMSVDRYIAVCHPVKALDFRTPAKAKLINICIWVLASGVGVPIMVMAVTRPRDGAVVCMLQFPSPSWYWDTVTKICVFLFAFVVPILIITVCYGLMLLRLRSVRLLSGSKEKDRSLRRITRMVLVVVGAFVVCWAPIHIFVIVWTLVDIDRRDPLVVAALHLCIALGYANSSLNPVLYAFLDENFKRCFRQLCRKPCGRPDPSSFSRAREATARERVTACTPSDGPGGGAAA
Chain of D(2) dopamine receptor (P14416 whole entry): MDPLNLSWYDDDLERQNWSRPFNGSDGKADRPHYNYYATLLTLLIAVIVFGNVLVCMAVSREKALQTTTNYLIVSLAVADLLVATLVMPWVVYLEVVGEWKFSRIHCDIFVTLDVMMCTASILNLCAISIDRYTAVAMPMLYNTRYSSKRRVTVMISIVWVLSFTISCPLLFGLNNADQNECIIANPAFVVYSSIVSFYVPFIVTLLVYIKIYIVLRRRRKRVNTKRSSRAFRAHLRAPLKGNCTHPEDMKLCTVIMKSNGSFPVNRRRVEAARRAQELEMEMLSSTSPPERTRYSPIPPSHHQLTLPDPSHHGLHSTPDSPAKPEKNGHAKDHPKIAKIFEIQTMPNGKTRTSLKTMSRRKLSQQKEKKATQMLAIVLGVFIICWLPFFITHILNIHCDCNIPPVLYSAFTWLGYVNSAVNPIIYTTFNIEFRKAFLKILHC
Chain of D(3) dopamine receptor (P35462 whole entry): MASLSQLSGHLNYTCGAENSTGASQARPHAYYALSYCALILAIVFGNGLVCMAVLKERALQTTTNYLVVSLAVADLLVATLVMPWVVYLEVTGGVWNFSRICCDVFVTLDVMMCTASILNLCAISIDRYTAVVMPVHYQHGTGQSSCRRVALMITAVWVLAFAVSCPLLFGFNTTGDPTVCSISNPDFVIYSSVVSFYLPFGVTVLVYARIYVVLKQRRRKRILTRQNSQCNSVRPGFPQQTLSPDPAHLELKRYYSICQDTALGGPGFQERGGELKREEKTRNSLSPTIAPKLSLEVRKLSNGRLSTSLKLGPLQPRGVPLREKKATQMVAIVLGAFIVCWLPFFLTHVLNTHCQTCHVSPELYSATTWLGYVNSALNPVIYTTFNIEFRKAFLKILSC
Chain of Muscarinic acetylcholine receptor M3 (P20309 whole entry): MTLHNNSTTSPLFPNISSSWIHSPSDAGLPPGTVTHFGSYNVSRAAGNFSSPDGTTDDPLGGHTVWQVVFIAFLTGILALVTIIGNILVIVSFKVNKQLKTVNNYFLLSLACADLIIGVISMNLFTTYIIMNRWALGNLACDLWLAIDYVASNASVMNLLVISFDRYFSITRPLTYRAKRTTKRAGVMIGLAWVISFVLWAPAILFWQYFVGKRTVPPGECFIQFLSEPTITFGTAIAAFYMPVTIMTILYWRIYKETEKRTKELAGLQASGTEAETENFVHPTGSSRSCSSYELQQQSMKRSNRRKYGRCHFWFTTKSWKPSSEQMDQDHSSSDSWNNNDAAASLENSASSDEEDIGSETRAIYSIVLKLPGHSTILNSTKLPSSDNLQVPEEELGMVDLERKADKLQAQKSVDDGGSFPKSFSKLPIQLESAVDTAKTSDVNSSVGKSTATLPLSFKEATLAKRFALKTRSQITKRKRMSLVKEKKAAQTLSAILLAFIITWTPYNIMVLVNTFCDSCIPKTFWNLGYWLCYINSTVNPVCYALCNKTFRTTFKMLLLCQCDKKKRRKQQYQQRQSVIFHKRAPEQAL
Chain of D(1A) dopamine receptor (P21728 whole entry): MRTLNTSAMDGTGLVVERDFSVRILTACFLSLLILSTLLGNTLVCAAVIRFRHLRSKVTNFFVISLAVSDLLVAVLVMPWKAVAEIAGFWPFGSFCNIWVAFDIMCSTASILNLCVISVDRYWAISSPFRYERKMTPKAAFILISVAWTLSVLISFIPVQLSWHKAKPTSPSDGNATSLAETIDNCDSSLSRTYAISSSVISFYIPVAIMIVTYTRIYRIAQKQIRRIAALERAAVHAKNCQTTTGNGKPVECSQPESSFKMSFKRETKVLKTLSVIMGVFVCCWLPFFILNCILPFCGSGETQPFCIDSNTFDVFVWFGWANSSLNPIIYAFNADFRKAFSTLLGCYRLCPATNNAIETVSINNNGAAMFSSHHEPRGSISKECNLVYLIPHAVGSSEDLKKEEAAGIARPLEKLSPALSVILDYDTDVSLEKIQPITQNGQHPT
Chain of Histamine H1 receptor (P35367 whole entry): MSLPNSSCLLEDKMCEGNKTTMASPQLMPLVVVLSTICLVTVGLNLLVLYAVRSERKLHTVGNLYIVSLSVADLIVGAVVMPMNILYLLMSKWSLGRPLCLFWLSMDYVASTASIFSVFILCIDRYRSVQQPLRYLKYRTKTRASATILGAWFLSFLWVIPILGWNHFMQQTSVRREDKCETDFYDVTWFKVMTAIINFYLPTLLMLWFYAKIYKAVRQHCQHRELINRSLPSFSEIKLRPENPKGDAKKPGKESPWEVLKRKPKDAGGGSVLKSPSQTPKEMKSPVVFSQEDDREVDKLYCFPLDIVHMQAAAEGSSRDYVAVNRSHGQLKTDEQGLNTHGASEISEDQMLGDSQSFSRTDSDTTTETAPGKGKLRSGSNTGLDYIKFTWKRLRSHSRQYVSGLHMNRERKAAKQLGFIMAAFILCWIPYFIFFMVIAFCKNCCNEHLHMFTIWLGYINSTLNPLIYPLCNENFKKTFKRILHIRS
Chain of 5-hydroxytryptamine receptor 1B (P28222 whole entry): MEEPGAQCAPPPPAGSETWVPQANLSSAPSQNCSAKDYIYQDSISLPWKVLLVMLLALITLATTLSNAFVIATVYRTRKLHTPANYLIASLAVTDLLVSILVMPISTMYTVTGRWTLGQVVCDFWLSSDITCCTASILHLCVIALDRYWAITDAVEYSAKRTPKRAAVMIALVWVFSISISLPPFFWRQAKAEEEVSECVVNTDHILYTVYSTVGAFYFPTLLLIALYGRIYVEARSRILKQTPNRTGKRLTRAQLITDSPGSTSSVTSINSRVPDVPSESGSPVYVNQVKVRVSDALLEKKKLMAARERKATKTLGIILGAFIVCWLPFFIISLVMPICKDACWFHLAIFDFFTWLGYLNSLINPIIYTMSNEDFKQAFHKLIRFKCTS
Chain of Kappa-type opioid receptor (P41145 whole entry): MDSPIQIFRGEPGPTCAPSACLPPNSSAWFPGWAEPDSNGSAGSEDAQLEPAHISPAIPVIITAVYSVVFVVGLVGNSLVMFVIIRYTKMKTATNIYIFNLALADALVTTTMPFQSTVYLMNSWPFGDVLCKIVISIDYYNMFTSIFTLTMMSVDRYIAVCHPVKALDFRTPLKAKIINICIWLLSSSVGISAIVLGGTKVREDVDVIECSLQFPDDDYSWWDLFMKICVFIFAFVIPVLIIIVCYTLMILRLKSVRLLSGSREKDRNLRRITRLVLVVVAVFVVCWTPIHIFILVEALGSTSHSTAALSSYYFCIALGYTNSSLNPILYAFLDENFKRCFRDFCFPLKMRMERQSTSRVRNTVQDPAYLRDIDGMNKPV

Row | SMILES | Ki [1] [µM] | Ki [2] [µM] | Ki [3] [µM] | Ki [4] [µM] | Ki [5] [µM] | Ki [6] [µM] | Ki [7] [µM] | Ki [8] [µM] | Ki [9] [µM] | Ki [10] [µM] | Ki [11] [µM] | Ki [12] [µM] | Ki [13] [µM] | Ki [14] [µM] | Ki [15] [µM] | Ki [16] [µM] | Ki [17] [µM]
1 | COc1ccc(NC(=O)N2CCN(c3ccc(-c4ccccc4)cc3)CC2)cc1N1CCN(C)CC1 | > 10 | > 10 | > 10 | > 10 | > 10 | > 10 | > 10 | > 10 | 1.43 | 0.0065 | > 10 | > 10 | > 10 | 0.0137 | 0.405 | > 10 | > 10
2 | COc1ccc(NC(=O)N2CCN(c3ccc(F)cc3)CC2)cc1N1CCN(C)CC1 | > 10 | > 10 | > 10 | > 10 | > 10 | > 10 | > 10 | > 10 | > 10 | > 10 | > 10 | > 10 | > 10 | 0.0383 | 1.08 | > 10 | > 10
3 | COc1ccc(NC(=O)N2CCN(c3ccc(SC)cc3)CC2)cc1N1CCN(C)CC1 | > 10 | > 10 | > 10 | > 10 | > 10 | > 10 | > 10 | > 10 | > 10 | 1.14 | > 10 | > 10 | > 10 | 0.0167 | 0.882 | > 10 | > 10
4 | COc1ccc(NC(=O)N2CCN(c3ccccc3Cl)CC2)cc1N1CCN(C)CC1 | > 10 | > 10 | > 10 | > 10 | > 10 | > 10 | > 10 | > 10 | 0.469 | 1.24 | > 10 | > 10 | > 10 | 0.0113 | 0.335 | > 10 | 0.342
5 | COc1ccc(NC(=O)N2CCN(c3ccc(C(F)(F)F)cc3)CC2)cc1N1CCN(C)CC1 | > 10 | > 10 | > 10 | > 10 | > 10 | > 10 | > 10 | > 10 | 2.86 | 2.83 | > 10 | > 10 | > 10 | 0.0284 | 0.382 | > 10 | > 10
6 | COc1ccccc1N1CCC(C(=O)Nc2ccc(OC)c(N3CCN(C)CC3)c2)CC1 | > 10 | > 10 | > 10 | > 10 | > 10 | > 10 | > 10 | > 10 | – | 9.95 | > 10 | > 10 | > 10 | 0.00968 | 0.0154 | > 10 | –
7 | COc1ccc(NC(=O)c2ccc(-c3ccc(-c4noc(C)n4)cc3C)cc2)cc1N1CCN(C)CC1 [GR-127935] | > 10 | > 10 | > 10 | > 10 | > 10 | > 10 | > 10 | > 10 | > 10 | 0.105 | > 10 | > 10 | > 10 | 0.00431 | 0.08 | > 10 | > 10
8 | COc1ccc(NC(=O)N2CCN(c3ccccc3F)CC2)cc1N1CCN(C)CC1 | > 10 | > 10 | > 10 | > 10 | > 10 | > 10 | > 10 | > 10 | 0.841 | 1.08 | > 10 | > 10 | > 10 | 0.0181 | 0.315 | > 10 | > 10
9 | COc1ccc(NC(=O)N2CCN(c3ccc(Cl)cc3)CC2)cc1N1CCN(C)CC1 | > 10 | > 10 | > 10 | > 10 | > 10 | > 10 | > 10 | > 10 | 5.09 | 0.267 | > 10 | > 10 | > 10 | 0.00182 | 0.0525 | > 10 | > 10
